# How the values were obtained:
# human fibroblasts [1] = assay: Multinucleation of ML-infected cells with or without ERK5 pathway inhibitor (Example 13); format: cell-based; details: addition of 2-5 μM inhibitor, 14 days after infection
# Protocol: (§1) In the same manner as in Example 12, human fibroblasts were infected with both a retrovirus vector incorporating MyoD1 gene and a retrovirus vector incorporating L-myc gene (ML). As a control, cells free of infection with a retrovirus vector were also prepared (−). A ERK5 pathway inhibitor, XMDB-92, was added at the indicated concentration to some groups. These were cultured in a myoblast differentiation medium in the same manner as in Example 12. 14 days after infection, nuclear staining was performed in the same manner as in Example 3. Images taken using a fluorescence microscope (Keyence BZ710) are shown (FIG. 13A, upper panel). In addition, the percentages of cells having 4 or more nuclei, cells having 2-3 nuclei and cells having one nucleus were calculated (FIG. 13A, lower panel).
# human fibroblasts [2] = assay: Real-time RT-PCR of Myogenin, CKM, Dystrophin mRNA with ERK5 pathway inhibitor (Example 13); format: cell-based; details: ML-infected cells with inhibitor, 14 days after infection
# Protocol: as §1
# In addition, 14 days after infection, RNA was extracted from the cells. As a control, RNA was also extracted from the primary human skeletal muscle cells (pSKMs). mRNAs of Myogenin, CKM, Dystrophin were quantified by real time RT-PCR.
smiles,measurement,setting,value
CCOc1cc(N2CCC(O)CC2)ccc1Nc1ncc2c(n1)N(C)c1ccccc1C(=O)N2C [XMD8-92],percentage of cells having 2-3 nuclei,human fibroblasts [1],21-23%
same,percentage of cells having not less than 4 nuclei,human fibroblasts [1],10-12%
same,"induction of expression of Myogenin, CKM, Dystrophin mRNA by ML gene transfer",human fibroblasts [2],not suppressed
